Data on two substances can be found in patent publication US11571484B2, “Compositions that target tumor-associated macrophages and methods of use therefor” (Sanford Burnham Prebys Medical Discovery Institute, priority 2017, dated 2023).

Ends that are not written are not given here.

In assay [1] the test system is peritoneal cells (CCR2+ macrophages) of 4T1 tumor-bearing mice. Briefly: Flow cytometry of FAM-peptide binding to peritoneal cells from 4T1 tumor mice. The class given is cell-based, mouse. As to conditions: anti-CD206 10 μg/mL. The procedure:
A, Change in fluorescence anisotropy of FAM-UNO (dotted line) and FAM-UNO in DTT (solid line) while incubating with mouse recombinant CD206. B, Change in fluorescence anisotropy of FAM-CSPGAK with mouse recombinant CD206 (solid line) or with CD163 (dotted line) and of FAM-CPMTDNE (control) with CD206 (dashed line). C, FAM-UNO binds selectively to CCR2^+ macrophages collected from the peritoneal cavity of 4T1 tumor-bearing mice, as 94.3% of FAM^+ cells are CCR2^+ cells. The analysis was done gating for the FAM^+ population (left panel). In these 4T1 tumor bearing mice, 58% of peritoneal cells are macrophages, i.e. CCR2^+ cells (right panel). D, FAM-UNO binding to peritoneal cells is inhibited by preincubating with 10 µg/mL of anti-CD206, whereas the preincubation with anti CD206 antibody had no effect on FAM-LyP-1 binding. In panels A and D are shown representative graphs from three independent experiments. In panels c and d are shown results from three independent experiments (n=3 mice) and bars of panel D represents mean+SEM.
Peritoneal cells were extracted from Balb/c mice 2 weeks after inoculation of 10^6 cells orthotopically). Mice were anesthetized and intraperitoneally injected with 5 mL of PBS+1% BSA, the abdomen was massaged to detach macrophages and the peritoneal fluid was collected. This procedure typically yielded 5-9×10^6 cells. Cells were concentrated to 1 mL in the same peritoneal fluid. For FAM-peptide incubation, the peptides were incubated for 30 minutes at 4° C. For antibody incubation the cells were incubated with antibody for 1 h at 4° C. A647 Rat anti-CCR2 (Biolegend, CA, USA. Catalog number 150603) was incubated for 1 h at 4° C. at a dilution of 1/200. FAM-peptides were incubated at a concentration of 0.5 μg/mL, and Rat anti-CD206 (Bio-Rad, CA, USA. Product code MCA2235GA) was incubated at a concentration of 10 μg/mL. Binding of FAM-peptides was monitored with 488 nm channel and CCR2 labeling was assessed in the 647 nm channel using A647 Anti-CCR2 (Biolegend, CA, USA). After incubation of FAM-Peptides or antibodies, the cells were washed 3 times at 4° C. with PBS-Tby centrifugation at 250 g for 6 minutes, followed by flow cytometry analysis (Accuri, BD Biosciences, CA, USA).

For assay [2], the system named is peritoneal macrophages. Briefly: In vivo phage display on peritoneal cells of 4T1 tumor-bearing versus normal mice. Details: species or system mouse. As to conditions: phage-displayed peptide, peritoneal cells of 4T1 tumor mice. The protocol: A, Naive phage library was injected intraperitoneally in 4T1 tumor-bearing mice and age-matched normal mice, and allowed to circulate for two h. Peritoneal cells were collected, the accompanying phages were rescued and the peptide-encoding segment of phage DNA was sequenced. […] Peritoneal cells were extracted from the mice, seeded on coverslips, allowed to attach for 2 h, fixed, permeabilized, and stained for CD206. CD206+ cells were counted from 6 different confocal images, 2 from each mouse. C, Highly repeated sequences obtained from the first round of the biopanning experiment shown schematically in panel A. D, Frequency of phage clones encoding UNO or a randomly picked peptide (CIGVSSDC) divided by the total number of repeated sequences) in the 4T1 tumor-bearing and normal mice.
Ten days later, the 4T1 mouse and a Balb/c female mouse of the matched age, were injected with 500 μL of a 7×10^10 pfu/mL of purified CX7C long-circulating library that bears a mutation on the p17 protein of tail fiber^45. After 2 h the mice were anesthetized and peritoneal cells were collected, washed by centrifugation, and lysed by hand-held homogenizer in 2 mL of LB+NP40 1%. The phage was amplified in E. coli strain BLT5403 for high throughput sequencing of peptide encoding segment of the phage genomic DNA using Ion Torrent semiconductor sequencing system.
In vivo phage display was carried out on orthotopic breast cancer bearing mice as outlined in FIG. 1A. Compared to peritoneal cells of healthy mice, […] macrophages were ˜5-fold overrepresented in Balb/c mice bearing metastatic syngeneic 4T1 breast tumors (FIG. 1B). We hypothesized that a peptide that binds to peritoneal macrophages in tumor-bearing mice may also target M2-like TAMs. Mice with 4T1 tumors were injected intraperitoneally (i.p.) with a phage library expressing 9-amino acid cyclic CX7C peptides. After 2 h, peritoneal cells were collected, bound phages were rescued by amplification, and the resulting phage pool was subjected to high-throughput sequencing of the peptide-encoding segment of the phage genome. […]

On to “FAM-LyP-1: FAM-labeled LyP-1 (CGNKRTRGC; SEQ ID NO: 4), peptide that targets cell surface p32 (not fully specified (N-terminus); cysteine pairing not given here) [reference compound]”, for which the “reduction of binding to peritoneal cells by pre-incubation with anti-CD206 antibody” value in assay [1] was “no effect”.

As for “CGEKRTRGC [phage clone previously identified together with LyP-1]”, the “representation among sequenced phage clones” value in assay [2] is recorded as “second most abundant phage clone overrepresented in the cancer mice”.
